Measurements from patent publication US4152436A, “Acylated pentadienone hydrazone, method for preparing the same, and use as fire ant control agents” (American Cyanamid Company, priority 1978, dated 1979).

How the values were obtained:
[1] = Solubility in soybean oil; format: physicochemical
Text: Determination of the Solubility of the Compounds of the Invention in Soybean Oil
The sample of the compound is then reweighed, the difference between the initial and final weights corresponding to the weight of the compound in solution.

[2] = test system: Tobacco Budworm [Heliothis virescens (Fabricius)]; experiment: Insecticide test, tobacco budworm 1st instar (eggs / newly hatched larvae on dipped cotton leaf); format: in vivo; settings: 72 h, read-out: % kill, Tobacco Budworm 1st Instar
Protocol: Tobacco Budworm [Heliothis virescens (Fabricius)]
A cotton plant with 2 true leaves expanded is dipped for 3 seconds with agitation in a 300 ppm solution. A 1.25 to 2 cm square of cheesecloth with about 50 to 100 budworm eggs 0-24 hours old is also dipped in the test solution and placed on one leaf to dry. The leaf with the treated budworm eggs is removed from the plant and placed in a 236.6 ml (8-oz) Dixie cup with a wet 5 cm piece of dental wick and covered with a lid. The other leaf is placed in a similar cup with a wick and a piece of cheesecloth infested with 50-100 newly hatched larvae is added before covering the cup with a lid. After 3 days at 26.7° C., observations of egg hatch are made as well as kill of newly hatched larvae, any inhibition of feeding, or interference of any sort with normal development.
(§1) Compounds rated active (8 or 9) are further tested at reduced concentrations in 50% acetone:50% water.

[3] = test system: Tobacco Budworm [Heliothis virescens (Fabricius)]; experiment: whole plant or invertebrate; format: in vivo; settings: 72 h, read-out: % kill, Tobacco Budworm 3rd Instar
Protocol: Third Instar Three cotton plants with just expanded cotyledons are dipped in a 1000 ppm solution, and placed in a hood to dry. When dry, each cotyledon is cut in half and each half is placed in one of ten 29.6 ml plastic medicine cups containing a 1.25 cm dental wick saturated with water, and one third instar budworm larva is added. The cup is capped and held for 3 days at 26.7° C., after which mortality counts are made. Compounds rated active (8 or 9) are further tested at reduced concentrations in 50% acetone:50% water.

[4] = test system: Southern Armyworm [Spodoptera eridania (Cramer)]; experiment: whole plant or invertebrate; format: in vivo; settings: for mortality at 10 ppm / mortality at 100 ppm / mortality at 1000 ppm: 48 h, read-out: % kill, Southern Armyworm 3rd Instar; for pest or weed control at 1000 µg/mL: 168 h, second leaf, 7 days from original treatment, read-out: % kill, Southern Armyworm 3rd Instar, 7 days (residual activity)
Protocol: Southern Armyworm [Spodoptera eridania ([…] bean plant with just the primary leaves expanded to 7.6 to 10 cm is dipped for 3 seconds with agitation in a 1000 ppm solution and set in a hood to dry. […] The dish is covered and held at 26.7° C. After 2 days mortality counts and estimates of the amount of feeding are made. Compounds showing partial kill and/or inhibition of feeding are held for an extra day for further observations. All compounds showing activity as defined above are retested, using the second leaf on the bean plant, after an interval of 7 days from original treatment, as an assay of residual activity. Compounds rated active (8 or 9) are further tested at reduced concentrations in 50% acetone:50% water.

[5] = test system: Cabbage Looper [Trichoplusia ni (Hubner)]; experiment: Insecticide test, cabbage looper 3rd instar; format: in vivo; settings: 48 h, 2 days, 26.7° C., read-out: % kill, Cabbage Looper 3rd Instar
Protocol: Cabbage Looper [Trichoplusia ni (Hubner)]
A primary leaf of a cotton plant is dipped in the test solution and agitated for 3 seconds. It is then set in a hood to dry. Following this, the leaf is placed in a 10 cm petri dish containing a moist filter paper at the bottom and 10 third-instar loopers. The dish is covered and held at 26.7° C. After 2 days, mortality counts and estimates of feeding damage are recorded. Those materials showing partial kill and/or inhibition of feeding are held for another day for further observations.
as §1

In the case of CC1(C)CN=C(NN=C(C=Cc2ccc(C(F)(F)F)cc2)C=Cc2ccc(C(F)(F)F)cc2)N(C(=O)c2ccccc2)C1 [drawing 32], the “Solubility in Soybean oil, In % of w/w” value [1] is reported as 0.4 % of w/w and the “Solubility in Soybean oil, In g/g of oil” value [1] is reported as 0.004 g/g of oil.

With CC1(C)CN=C(NN=C(C=Cc2ccc(C(F)(F)F)cc2)C=Cc2ccc(C(F)(F)F)cc2)NC1 the “Solubility in Soybean oil, In % of w/w” value [1] was 0.1 % of w/w and the “Solubility in Soybean oil, In g/g of oil” value [1] was 0.001 g/g of oil.

In the case of CCCCCCCCCCCCCCCC(=O)N1CC(C)(C)CN=C1NN=C(C=Cc1ccc(C(F)(F)F)cc1)C=Cc1ccc(C(F)(F)F)cc1 [drawing 33], the “Solubility in Soybean oil, In % of w/w” value [1] is reported as 2.0 % of w/w and the “Solubility in Soybean oil, In g/g of oil” value [1] is reported as 0.02 g/g of oil.

Compound CC1(C)CN=C(NN=C(C=Cc2ccc(C(F)(F)F)cc2)C=Cc2ccc(C(F)(F)F)cc2)N(C(=O)c2ccccc2)C1 [drawing 35] has a mortality at 100 ppm [2] of 0 to 40%, a mortality at 10 ppm [3] of 0% and a mortality at 100 ppm [3] of 100%. For the same compound, the mortality at 1000 ppm [3] was 100%, the mortality at 10 ppm [4] was 0% and the mortality at 100 ppm [4] was 100%. It also gave a mortality at 1000 ppm [4] of 100%, a pest or weed control at 1000 µg/mL [4] of 100% and a mortality at 10 ppm [5] of 0%. For the same compound, the mortality at 100 ppm [5] was 100% and the mortality at 1000 ppm [5] was 100%.

Compound CCCCCCCCCCCCCCCC(=O)N1CC(C)(C)CN=C1NN=C(C=Cc1ccc(C(F)(F)F)cc1)C=Cc1ccc(C(F)(F)F)cc1 [R1=CF3, R3=n-C15 H31] has a mortality at 100 ppm [2] of 0 to 40%, a mortality at 300 ppm [2] of 86 to 95% and a mortality at 10 ppm [3] of 0%. For the same compound, the mortality at 100 ppm [3] was 30%, the mortality at 1000 ppm [3] was 100% and the mortality at 10 ppm [4] was 0%. It also gave a mortality at 100 ppm [4] of 100%, a mortality at 1000 ppm [4] of 100% and a pest or weed control at 1000 µg/mL [4] of 80%. The mortality at 10 ppm [5] was 0%, the mortality at 100 ppm [5] was 60% and the mortality at 1000 ppm [5] was 100%.

For CC(=O)N1CC(C)(C)CN=C1NN=C(C=Cc1ccc(C(F)(F)F)cc1)C=Cc1ccc(C(F)(F)F)cc1 [drawing 31], the “Solubility in Soybean oil, In % of w/w” value [1] was 0.3 % of w/w and the “Solubility in Soybean oil, In g/g of oil” value [1] was 0.003 g/g of oil.

Work on CCCCC(=O)N1CC(C)(C)CN=C1NN=C(C=Cc1ccc(C(F)(F)F)cc1)C=Cc1ccc(C(F)(F)F)cc1 [R1=CF3, R3=n-C4 H9] yielded a mortality at 300 ppm [2] of 86 to 95%, a mortality at 100 ppm [3] of 40% and a mortality at 1000 ppm [3] of 100%. For the same compound, the mortality at 10 ppm [4] was 0%, the mortality at 100 ppm [4] was 100% and the mortality at 1000 ppm [4] was 100%. The pest or weed control at 1000 µg/mL [4] was 100%, the mortality at 100 ppm [5] was 100% and the mortality at 1000 ppm [5] was 100%.
